Assay: drug substance degradation on hot melt extrusion
Format: physicochemical
Conditions: hot melt extrusion at a temperature of 165° C.
Experimental: Compound 1, Compound 2 and ritonavir were extruded using melt-extrusion. 31 g of copovidone, 3.5 g of vitamin E TPGS and 1.0 g of propylene glycol monolaurate were granulated for 2 minutes in a mill. After two hours, the mixture was blended with 5.09 g of ritonavir, 1.27 g of Compound 2, 7.64 g of Compound 1 and 0.5 g colloidal silica for 2 minutes in a blender and subsequently sieved over a 1.0 mm mesh sieve. The mixture was extruded on a Haake/Thermo Fisher extruder at 165° C. at a screw speed of 30 rpm. The extrudate thus prepared contained 15% Compound 1, 10% ritonavir, 2.5% Compound 2, 62% copovidone, 1% colloidal silica (areosil 200), 7% vitamin E TPGS, and 2% propylene glycol monolaurate.
The tablet was also tested for stability. […] The degradation of each drug substance after melt extrusion was within the specifications.

ritonavir degradation when co-extruded with Compound 1 and Compound 2: well within the acceptable levels
Structure (SMILES): CC(C)c1nc(CN(C)C(=O)N[C@H](C(=O)N[C@@H](Cc2ccccc2)C[C@H](O)[C@H](Cc2ccccc2)NC(=O)OCc2cncs2)C(C)C)cs1 [ritonavir]

Reference: patent US20150141351A1, “Solid Pharmaceutical Compositions” (AbbVie Deutschland GmbH & Co. KG, priority 2013, published 2015)
